One assay concerns THP1 cells. The assay can be described thus: Interferon β induction assay based on THP1 cells (ELISA). The assay is classed as cell-based. As to conditions: Homo sapiens, THP-1, compound 20 μM, 3.5 h, read-out: Secretion of IFNβ in THP1 cells, effect relative to 2′,3′-cGAMP at 20 μM (%). As to the method: Secreted cytokine IFNβ was determined by ELISA. THP1 cells were inoculated in a 96-well plate (there was no serum contained in an RPMI 1640 medium), such that the number of cells in each well ranged from 5×10^5 to 7×10^5. A DMSO stock solution of 10 mM was prepared from a compound to be tested, diluted with a culture medium to a target concentration to be added into the 96-well plate containing cells (the final concentration of said compound was 20 μM, and the final volume of each well was 200 μL), and cultured at 37° C. in 5% CO2 for 3.5 h. The cells were collected at 4° C. and centrifuged at 1,000 rpm for 20 mins, and supernate was collected for ELISA determination. There were three repeated wells set in the assay. The result was shown in the following tablet, with 2′,3′-cGAMP as a positive control, where the test result was represented as a percentage of activity relative to 2′,3′-cGAMP at a concentration of 20 μM.
In general terms: An ELISA detects its analyte on a solid surface through an enzyme-linked reagent.
On to `COc1cc2cc(C(=O)CC(C)C(N)=O)[se]c2cc1OC` (stereo not drawn) [I-13, 4-(5,6-dimethoxybenzo[b]selenophene-2-yl)-2-methyl-4-oxo-butyramide], for which the Emax at 20 µM worked out at 6%.
The same measure, in the same setting: as for `CC[C@H](CC(=O)c1cc2cc(OC)c(OC)cc2[se]1)C(=O)O` [I-15, R-4-(5,6-dimethoxybenzo[b]selenophene-2-yl)-2-ethyl-4-oxo-butanoic acid], the figure is 2%; as for `CC[C@@H](CC(=O)c1cc2cc(OC)c(OC)cc2[se]1)C(=O)O` [I-16, S-4-(5,6-dimethoxybenzo[b]selenophene-2-yl)-2-ethyl-4-oxo-butanoic acid], 281%.
The same measure, in the same setting: under `COc1cc2cc(C(=O)CC(C(=O)O)C(C)C)[se]c2cc1OC` (stereo not drawn) [I-17, 4-(5,6-dimethoxybenzo[b]selenophene-2-yl)-2-isopropyl-4-oxo-butanoic acid] stands 293%.
Turning to `COc1cc2cc(C(=O)CC(C(=O)O)C3CC3)[se]c2cc1OC` (stereo not drawn) [I-18, 2-cyclopropyl-4-(5,6-dimethoxybenzo[b]selenophene-2-yl)-4-oxo-butanoic acid], the Emax at 20 µM came out at 277%.
Still for that read-out and setting: as for `COCC(CC(=O)c1cc2cc(OC)c(OC)cc2[se]1)C(=O)O` (stereo not drawn) [I-19, 4-(5,6-dimethoxybenzo[b]selenophene-2-yl)-2-(methoxymethyl)-4-oxo-butanoic acid], the figure is 107%.
Still for that read-out and setting: under `CCCCC(CC(=O)c1cc2cc(OC)c(OC)cc2[se]1)C(=O)O` (stereo not drawn) [I-20, 2-(2-(5,6-dimethoxybenzo[b]selenophene-2-yl)-2-oxo-ethyl) hexanoic acid] stands 132%; under `COc1cc2cc(C(=O)CCCC(=O)O)[se]c2cc1OC` [I-21, 5-(5,6-dimethoxybenzo[b]selenophene-2-yl)-5-oxo-pentanoic acid], 12%; under `COc1cc2cc(C(=O)C3CC3C(=O)O)[se]c2cc1OC` (stereo not drawn) [I-22], 115%.
Still for that read-out and setting: as for `COc1cc2cc(C(=O)C3CCC3C(=O)O)[se]c2cc1OC` (stereo not drawn) [I-23], the figure is 273%; as for `COc1cc2cc(C(=O)C3CCCCC3C(=O)O)[se]c2cc1OC` (stereo not drawn) [I-24], 142%.

The next assay deals with RAW-Lucia cells. The assay can be described thus: Luciferase assay based on RAW-Lucia cells. As to conditions: 24 h at 37° C. In kind it is cell-based. As to the method:
(§1) THP1-dual™ (Invivogen: thpd-nfis) cells or RAW-Lucia™ (Invivogen: rawl-isg) cells were diluted using a culture medium, and 180 μL of cell suspension was sucked and inoculated in a 96-well plate, such that each well contain 1×10^5 cells. 20 μL of a compound to be tested was added into the 96-well plate (the final concentration of said compound was […], and the final volume of each well was […]) and cultured at 37° C. for 24 h. 10 μL of supernatant was sucked into a new 96-well white plate, and 50 μL of a QUANT-Luc reagent was added. After full and even mixing, a microplate reader was used immediately for determination. There were three repeated wells set in the assay. The test result was represented as agitation fold and calculated by (test well−blank well)/(negative well−blank well). The test result was in the following tablet, with 2′,3′-cGAMP as a positive control, where *** represented an agitation fold of 20 or more, ** represented an agitation fold of 10 to 20, and * represented an agitation fold of 1 to 10.
Consider `COc1cc2cc(C(=O)CC(C)C(N)=O)[se]c2cc1OC` (stereo not drawn) [I-13, 4-(5,6-dimethoxybenzo[b]selenophene-2-yl)-2-methyl-4-oxo-butyramide], for which the “Agitation activity in luciferase assay, RAW-Lucia (agitation fold)” value is recorded as “* (* represented an agitation fold of 1 to 10)”.
On the same count and under the same terms, as for `CC[C@H](CC(=O)c1cc2cc(OC)c(OC)cc2[se]1)C(=O)O` [I-15, R-4-(5,6-dimethoxybenzo[b]selenophene-2-yl)-2-ethyl-4-oxo-butanoic acid], the entry is “*** (*** represented an agitation fold of 20 or more)”; as for `CC[C@@H](CC(=O)c1cc2cc(OC)c(OC)cc2[se]1)C(=O)O` [I-16, S-4-(5,6-dimethoxybenzo[b]selenophene-2-yl)-2-ethyl-4-oxo-butanoic acid], “*** (*** represented an agitation fold of 20 or more)”.
Consider `COc1cc2cc(C(=O)CC(C(=O)O)C(C)C)[se]c2cc1OC` (stereo not drawn) [I-17, 4-(5,6-dimethoxybenzo[b]selenophene-2-yl)-2-isopropyl-4-oxo-butanoic acid], for which the “Agitation activity in luciferase assay, RAW-Lucia (agitation fold)” value is given as “** (** represented an agitation fold of 10 to 20)”.
Same read-out and setting: under `COc1cc2cc(C(=O)CC(C(=O)O)C3CC3)[se]c2cc1OC` (stereo not drawn) [I-18, 2-cyclopropyl-4-(5,6-dimethoxybenzo[b]selenophene-2-yl)-4-oxo-butanoic acid] stands “** (** represented an agitation fold of 10 to 20)”.
As to `COCC(CC(=O)c1cc2cc(OC)c(OC)cc2[se]1)C(=O)O` (stereo not drawn) [I-19, 4-(5,6-dimethoxybenzo[b]selenophene-2-yl)-2-(methoxymethyl)-4-oxo-butanoic acid], the “Agitation activity in luciferase assay, RAW-Lucia (agitation fold)” value is on record as “** (** represented an agitation fold of 10 to 20)”.
Still for that read-out and setting: as for `CCCCC(CC(=O)c1cc2cc(OC)c(OC)cc2[se]1)C(=O)O` (stereo not drawn) [I-20, 2-(2-(5,6-dimethoxybenzo[b]selenophene-2-yl)-2-oxo-ethyl) hexanoic acid], the entry is “** (** represented an agitation fold of 10 to 20)”; as for `COc1cc2cc(C(=O)CCCC(=O)O)[se]c2cc1OC` [I-21, 5-(5,6-dimethoxybenzo[b]selenophene-2-yl)-5-oxo-pentanoic acid], “* (* represented an agitation fold of 1 to 10)”.
On to `COc1cc2cc(C(=O)C3CC3C(=O)O)[se]c2cc1OC` (stereo not drawn) [I-22], for which the “Agitation activity in luciferase assay, RAW-Lucia (agitation fold)” value is “** (** represented an agitation fold of 10 to 20)”.
Turning to `COc1cc2cc(C(=O)C3CCC3C(=O)O)[se]c2cc1OC` (stereo not drawn) [I-23], the “Agitation activity in luciferase assay, RAW-Lucia (agitation fold)” value was “*** (*** represented an agitation fold of 20 or more)”.
Same read-out and setting: as for `COc1cc2cc(C(=O)C3CCCCC3C(=O)O)[se]c2cc1OC` (stereo not drawn) [I-24], the entry is “** (** represented an agitation fold of 10 to 20)”.

A further assay relates to THP1-dual cells. Put plainly: Luciferase assay based on THP1-dual cells. The assay is classed as cell-based. As to conditions: final concentration of compound 10 μL (so in the source), 24 h at 37° C. The method, then:
as §1
In the case of `COc1cc2cc(C(=O)CC(C)C(N)=O)[se]c2cc1OC` (stereo not drawn) [I-13, 4-(5,6-dimethoxybenzo[b]selenophene-2-yl)-2-methyl-4-oxo-butyramide], the “Agitation activity in luciferase assay, THP1-dual (agitation fold)” value is “* (* represented an agitation fold of 1 to 10)”.
Take `CC[C@H](CC(=O)c1cc2cc(OC)c(OC)cc2[se]1)C(=O)O` [I-15, R-4-(5,6-dimethoxybenzo[b]selenophene-2-yl)-2-ethyl-4-oxo-butanoic acid]: the “Agitation activity in luciferase assay, THP1-dual (agitation fold)” value is on record as “*** (*** represented an agitation fold of 20 or more)”.
Same read-out and setting: under `CC[C@@H](CC(=O)c1cc2cc(OC)c(OC)cc2[se]1)C(=O)O` [I-16, S-4-(5,6-dimethoxybenzo[b]selenophene-2-yl)-2-ethyl-4-oxo-butanoic acid] stands “*** (*** represented an agitation fold of 20 or more)”.
In the case of `COc1cc2cc(C(=O)CC(C(=O)O)C(C)C)[se]c2cc1OC` (stereo not drawn) [I-17, 4-(5,6-dimethoxybenzo[b]selenophene-2-yl)-2-isopropyl-4-oxo-butanoic acid], the “Agitation activity in luciferase assay, THP1-dual (agitation fold)” value is given as “*** (*** represented an agitation fold of 20 or more)”.
The same measure, in the same setting: as for `COc1cc2cc(C(=O)CC(C(=O)O)C3CC3)[se]c2cc1OC` (stereo not drawn) [I-18, 2-cyclopropyl-4-(5,6-dimethoxybenzo[b]selenophene-2-yl)-4-oxo-butanoic acid], the entry is “*** (*** represented an agitation fold of 20 or more)”; as for `COCC(CC(=O)c1cc2cc(OC)c(OC)cc2[se]1)C(=O)O` (stereo not drawn) [I-19, 4-(5,6-dimethoxybenzo[b]selenophene-2-yl)-2-(methoxymethyl)-4-oxo-butanoic acid], “** (** represented an agitation fold of 10 to 20)”.
Still for that read-out and setting: under `CCCCC(CC(=O)c1cc2cc(OC)c(OC)cc2[se]1)C(=O)O` (stereo not drawn) [I-20, 2-(2-(5,6-dimethoxybenzo[b]selenophene-2-yl)-2-oxo-ethyl) hexanoic acid] stands “** (** represented an agitation fold of 10 to 20)”.
For the molecule `COc1cc2cc(C(=O)CCCC(=O)O)[se]c2cc1OC` [I-21, 5-(5,6-dimethoxybenzo[b]selenophene-2-yl)-5-oxo-pentanoic acid], the “Agitation activity in luciferase assay, THP1-dual (agitation fold)” value was “* (* represented an agitation fold of 1 to 10)”.
The same measure, in the same setting: under `COc1cc2cc(C(=O)C3CC3C(=O)O)[se]c2cc1OC` (stereo not drawn) [I-22] stands “** (** represented an agitation fold of 10 to 20)”.
Still for that read-out and setting: under `COc1cc2cc(C(=O)C3CCC3C(=O)O)[se]c2cc1OC` (stereo not drawn) [I-23] stands “*** (*** represented an agitation fold of 20 or more)”.
On to `COc1cc2cc(C(=O)C3CCCCC3C(=O)O)[se]c2cc1OC` (stereo not drawn) [I-24], for which the “Agitation activity in luciferase assay, THP1-dual (agitation fold)” value is given as “** (** represented an agitation fold of 10 to 20)”.

The record behind these values is patent US12606538B2, “Benzo[b]selenophene sting regulator, preparation method and use thereof” (CHINA PHARMACEUTICAL UNIVERSITY, priority 2021, dated 2026).
